From patent US12673947B2 (Cytosinlab Therapeutics Co., Ltd., priority 2020, dated 2026)
pIC50: −log10 of the molar value.

Experiments:
[1] = molecular target: T1, FLT3 (Homo sapiens, UniProt P36888); assay: FLT3 kinase in vitro inhibitory activity experiment (Caliper mobility shift, conversion rate); format: biochemical; conditions: IC50 class, read-out: Enzyme activity FLT3
T1 construct: purchased Carna 08-145
T1 sequence (P36888 27-993): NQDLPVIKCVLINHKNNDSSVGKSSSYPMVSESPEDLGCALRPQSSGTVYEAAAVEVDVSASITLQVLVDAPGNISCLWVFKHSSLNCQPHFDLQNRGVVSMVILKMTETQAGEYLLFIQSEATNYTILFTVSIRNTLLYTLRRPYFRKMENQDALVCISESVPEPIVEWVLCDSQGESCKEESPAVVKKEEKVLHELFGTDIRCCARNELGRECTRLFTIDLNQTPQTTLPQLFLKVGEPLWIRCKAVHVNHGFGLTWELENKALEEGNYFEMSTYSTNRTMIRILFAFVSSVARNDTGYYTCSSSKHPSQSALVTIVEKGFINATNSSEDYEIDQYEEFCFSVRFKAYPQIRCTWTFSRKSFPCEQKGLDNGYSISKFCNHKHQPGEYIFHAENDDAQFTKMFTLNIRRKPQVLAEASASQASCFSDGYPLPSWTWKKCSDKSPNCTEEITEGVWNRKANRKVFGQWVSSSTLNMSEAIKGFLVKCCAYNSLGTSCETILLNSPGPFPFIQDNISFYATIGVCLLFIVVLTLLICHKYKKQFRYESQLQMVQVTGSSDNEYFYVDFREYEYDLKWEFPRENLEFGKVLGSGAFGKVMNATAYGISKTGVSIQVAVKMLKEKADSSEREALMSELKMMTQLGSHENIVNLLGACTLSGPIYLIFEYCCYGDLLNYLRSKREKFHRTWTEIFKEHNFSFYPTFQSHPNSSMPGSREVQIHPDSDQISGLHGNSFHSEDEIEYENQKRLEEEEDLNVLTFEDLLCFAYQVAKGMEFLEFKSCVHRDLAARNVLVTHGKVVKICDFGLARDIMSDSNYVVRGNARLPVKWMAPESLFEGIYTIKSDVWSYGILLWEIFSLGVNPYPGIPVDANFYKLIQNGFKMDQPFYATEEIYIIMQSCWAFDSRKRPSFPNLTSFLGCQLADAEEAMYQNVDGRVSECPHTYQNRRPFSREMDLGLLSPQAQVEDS
Outline: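 FLT3 was pre-incubated with compound for 10 min at room temperature, then the reaction was started with ATP plus Kinase substrate 2 and run 30 min at room temperature before stop solution. Substrate conversion was read by Caliper mobility shift.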

[2] = test system: MV4;11 cells; assay: MV4;11 in vitro inhibition of proliferation assay (CellTiter-Glo, 72 hours); format: cell-based; conditions: Homo sapiens, MV4-11, 72 h, IC50 class, read-out: Inhibitory activity of cell proliferation MV4;11
Outline: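 MV4;11 cells in IMDM/10% FBS, 2000 per well, were exposed to 9-point 3-fold DMSO dilutions from 10 uM (final DMSO 0.3%) in triplicate for 72 hours at 37° C., 5% CO2. Viability was read by CellTiter-Glo luminescence, and IC50 came from a four-parameter fit of inhibition.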

Row | pIC50 [1] | pIC50 [2] | Compound
1 | ≥ 8.00 | 7.00 to 8.00 | CCc1nc2c(N)ncc(-c3cnn(-c4ccnc(C(F)(F)F)n4)c3)c2nc1N[C@@H]1CC[C@H](O)C1 [Compound 274]
2 | ≥ 8.00 | 7.00 to 8.00 | CCc1nc2c(N)ncc(-c3cnn(-c4ccc(OC(C)C)nc4)c3)c2nc1N[C@@H]1CC[C@H](O)C1 [Compound 275]
3 | ≥ 8.00 | ≥ 8.00 | CCc1nc2c(N)ncc(-c3cnn(-c4ccc(C(C)(C)O)cn4)c3)c2nc1N[C@@H]1CC[C@H](O)C1 [Compound 276]
4 | 7.00 to 8.00 | 6.30 to 7.00 | CCc1nc2c(N)ncc(-c3cnn(-c4ccc(C5CCCCC5)cc4)c3)c2nc1N[C@@H]1CC[C@H](O)C1 [Compound 277]
5 | ≥ 8.00 | ≥ 8.00 | CCc1nc2c(N)ncc(-c3cnn(-c4ccc(C5CCNCC5)cc4)c3)c2nc1N[C@@H]1CC[C@H](O)C1 [Compound 278]
6 | 7.00 to 8.00 | 7.00 to 8.00 | CCc1nc2c(N)ncc(-c3cnn(-c4ccc(Cl)c(C)c4)c3)c2nc1N[C@@H]1CC[C@H](O)C1 [Compound 279]
7 | ≥ 8.00 | ≥ 8.00 | CCc1nc2c(N)ncc(-c3cnn(-c4ccnc(C)n4)c3)c2nc1NC1CCOCC1 [Compound 280]
8 | 7.00 to 8.00 | 7.00 to 8.00 | CCc1nc2c(N)ncc(-c3cnn(-c4ccnc(C)n4)c3)c2nc1N[C@H]1CCOC1 [Compound 281]
9 | ≥ 8.00 | 7.00 to 8.00 | CCc1nc2c(N)ncc(-c3cnn(C4CCS(=O)(=O)CC4)c3)c2nc1N[C@@H]1CC[C@H](O)C1 [Compound 282]
10 | ≥ 8.00 | 7.00 to 8.00 | CCc1nc2c(N)ncc(-c3cnn(C4CCc5cc(F)cc(F)c5CC4)c3)c2nc1N[C@@H]1CC[C@H](O)C1 (stereo partly shown) [Compound 283]
11 | ≥ 8.00 | 7.00 to 8.00 | CCc1nc2c(N)ncc(-c3ccc(N4CCC(N5CCN(C)CC5)C(C)C4)c(OC)c3)c2nc1NC1CCOCC1 (stereo not shown) [Compound 287, 3-ethyl-8-(3-methoxy-4-(3-methyl-4-(4-methylpiperazine-1-yl)piperidine-1-yl)phenyl)-N2-(tetrahydro-2H-pyran-4-yl)pyridino[3,4-b]pyrazine-2,5-diamine]
12 | ≥ 8.00 | 7.00 to 8.00 | CCc1nc2c(N)ncc(-c3ccc(-c4ccnc(C)n4)c(OC)c3)c2nc1N[C@@H]1CC[C@H](O)C1 [Compound 288, (1S,3R)-3-((5-amino-3-ethyl-8-(3-methoxy-4-(2-methylpyrimidine-4-yl)phenyl)pyrido[3,4-b]pyrazine-2-yl)amino)cyclopentan-1-ol]
13 | ≥ 8.00 | ≥ 8.00 | CCc1nc2c(N)ncc(-c3cnn(-c4ccc(C5CCN(C)CC5)cc4)c3)c2nc1N[C@@H]1CC[C@H](O)C1 [Compound 290]
14 | ≥ 8.00 | 7.00 to 8.00 | CCc1nc2c(N)ncc(-c3cnn(-c4ccc(Cl)cc4)c3)c2nc1N[C@@H]1CC[C@H](O)C1 [Compound 291]
15 | < 6.30 | 6.30 to 7.00 | CCc1nc2c(N)ncc(-c3cnn(-c4ccc(OC5CCN(C)CC5)cc4)c3)c2nc1N[C@@H]1CC[C@H](O)C1 [Compound 292, (1S, 3R)-3-((5-amino-3-ethyl-8-(1-(4-((1-methylpiperidin-4-yl)oxy)phenyl)-1H-pyrazol-4-yl)pyridino[3,4-b]pyrazin-2-yl)amino)cyclopentan-1-ol]
16 | ≥ 8.00 | ≥ 8.00 | CCc1nc2c(N)ncc(-c3cnn(-c4ncccn4)c3)c2nc1N[C@@H]1CC[C@H](O)C1 [Compound 294]
17 | ≥ 8.00 | ≥ 8.00 | CCc1nc2c(N)ncc(-c3cnn(-c4cncnc4)c3)c2nc1N[C@@H]1CC[C@H](O)C1 [Compound 295]
18 | ≥ 8.00 | ≥ 8.00 | CCc1nc2c(N)ncc(-c3cnn(-c4ccn(C)c(=O)c4)c3)c2nc1N[C@@H]1CC[C@H](O)C1 [Compound 296]

Row | pIC50 [1] | pIC50 [2] | Compound
19 | ≥ 8.00 | 7.00 to 8.00 | CCc1nc2c(N)ncc(-c3cnn(-c4cc(C)n(C)c(=O)c4)c3)c2nc1N[C@@H]1CC[C@H](O)C1 [Compound 299]
20 | ≥ 8.00 | ≥ 8.00 | CCc1nc2c(N)ncc(-c3cnn(-c4ccc(=O)n(C)c4)c3)c2nc1N[C@@H]1CC[C@H](O)C1 [Compound 301]
21 | ≥ 8.00 | ≥ 8.00 | CCc1nc2c(N)ncc(-c3cnn(-c4cccnc4)c3)c2nc1N[C@@H]1CC[C@H](O)C1 [Compound 302]
22 | ≥ 8.00 | 7.00 to 8.00 | CCc1nc2c(N)ncc(-c3cnn(-c4ccc(C)cc4)c3)c2nc1N[C@@H]1CC[C@H](O)C1 [Compound 303]
23 | ≥ 8.00 | ≥ 8.00 | CCc1nc2c(N)ncc(-c3cnn(-c4cc(C)ncn4)c3)c2nc1N[C@@H]1CC[C@H](O)C1 [Compound 304]
24 | ≥ 8.00 | ≥ 8.00 | CCc1nc2c(N)ncc(-c3cnn(-c4ccnnc4)c3)c2nc1N[C@@H]1CC[C@H](O)C1 [Compound 306]
25 | ≥ 8.00 | ≥ 8.00 | CCc1nc2c(N)ncc(-c3cnn(-c4ccnc(C(C)(C)O)c4)c3)c2nc1N[C@@H]1CC[C@H](O)C1 [Compound 308]
26 | ≥ 8.00 | ≥ 8.00 | CCc1nc2c(N)ncc(-c3cnn(-c4ccnc(OC)c4)c3)c2nc1N[C@@H]1CC[C@H](O)C1 [Compound 309]
27 | ≥ 8.00 | 7.00 to 8.00 | CCc1nc2c(N)ncc(-c3cnn(-c4ccnc(N5CCCC5)c4)c3)c2nc1N[C@@H]1CC[C@H](O)C1 [Compound 310]
28 | ≥ 8.00 | ≥ 8.00 | CCc1nc2c(N)ncc(-c3cnn(-c4ccc(CNC)cc4)c3)c2nc1N[C@@H]1CC[C@H](O)C1 [Compound 311]
29 | ≥ 8.00 | 7.00 to 8.00 | CCc1nc2c(N)ncc(-c3ccc(-c4cnn(C5CCN(C)CC5)c4)c(OC)c3)c2nc1N[C@@H]1CC[C@H](O)C1 [Compound 312, (1S, 3R)-3-((5-amino-3-ethyl-8-(3-methoxy-4-(1-(1-methylpiperidin-4-yl)-1H-pyrazol-4-yl)phenyl)pyridino [3,4-b]pyrazin-2-yl)amino) cyclopentan-1-ol]
30 | ≥ 8.00 | 7.00 to 8.00 | CCc1nc2c(N)ncc(-c3ccc(-c4ccc(C5CCN(C)CC5)cc4)c(OC)c3)c2nc1N[C@@H]1CC[C@H](O)C1 [Compound 313]
31 | 7.00 to 8.00 | 7.00 to 8.00 | CCc1nc2c(N)ncc(-c3ccc(N4CCC(N5CCCN(C)CC5)CC4)c(OC)c3)c2nc1NC1CCOCC1 [Compound 314]
32 | ≥ 8.00 | 7.00 to 8.00 | CCc1nc2c(N)ncc(-c3ccc(N4CCC(N5CCN(CC)CC5)CC4)c(OC)c3)c2nc1NC1CCOCC1 [Compound 315, 3-ethyl-8-(4-(4-(4-ethylpiperazine-1-yl)piperidine-1-yl)-3-methoxyphenyl)-N2-(tetrahydro-2H-pyran-4-yl)pyridino[3,4-b]pyrazine-2,5-diamine]
33 | ≥ 8.00 | ≥ 8.00 | CCc1nc2c(N)ncc(-c3cnn(-c4ccnc(CO)c4)c3)c2nc1N[C@@H]1CC[C@H](O)C1 [Compound 318]
34 | ≥ 8.00 | 7.00 to 8.00 | CCc1nc2c(N)ncc(-c3ccc(N4CCC(N5CCN(CC(F)F)CC5)CC4)c(OC)c3)c2nc1NC1CCOCC1 [Compound 321]
35 | ≥ 8.00 | 7.00 to 8.00 | CCc1nc2c(N)ncc(-c3ccc(N4CCC(N5CCN(C)CC5)CC4C)c(OC)c3)c2nc1NC1CCOCC1 (stereo not shown) [Compound 322]

Row | Compound | pIC50 [1] | pIC50 [2]
36 | CCc1nc2c(N)ncc(-c3ccc(N4CC5CCC(C4)N5C)c(OC)c3)c2nc1N[C@@H]1CC[C@H](O)C1 [Compound 286, (1S, 3R)-3-((5-amino-3-ethyl-8-(3-methoxy-4-(8-methyl-3,8-diazabicyclo[3.2.1]octyl-3-yl)phenyl)pyridino[3,4-b]pyrazine-2-yl)amino)cyclopentan-1-ol] | ≥ 8.00 | ≥ 8.00
37 | CCc1nc2c(N)ncc(-c3ccc(N4CCC(N5CC6CCC(C5)N6C)CC4)c(OC)c3)c2nc1NC1CCOCC1 [Compound 293, 3-ethyl-8-(3-methoxy-4-(4-(8-methyl-3,8-diazabicyclo[3.2.1]octan-3-yl)piperidin-1-yl)phenyl)-N2-(tetrahydro-2H-pyran-4-yl)pyridino [3,4-b]pyrazin-2,5-diamine] | ≥ 8.00 | 7.00 to 8.00
38 | CCc1nc2c(N)ncc(-c3ccc(N4CCC(N5CC6CCC(C5)N6)CC4)c(OC)c3)c2nc1NC1CCOCC1 [Compound 319, 8-(4-(4-(3,8-diazabicyclo[3.2.1]octane-3-yl)piperidin-1-yl)-3-methoxyphenyl)-3-ethyl-N2-(tetrahydro-2H-pyran-pyridin-4-yl)pyridino [3,4-b]pyrazine-2,5-diamine] | ≥ 8.00 | 7.00 to 8.00
